# Measured values: the NIST ThermoML archive (doi:10.1021/acs.jced.6b00713)
# Numbers after ± are expanded uncertainties.
# Experiments:
# [1] = Boiling temperature at pressure P; conditions: 101.3 kPa; Liquid; Ebulliometric method (Recirculating still)
# [2] = 298.15 K; 101.33 kPa; Liquid; Vibrating tube method
# [3] = refractive index (Na D-line) (dimensionless); conditions: 293.15 K; 101.33 kPa; Liquid; Standard Abbe refractometry
Boiling temperature at pressure P [1] [°C],mass density [2] [kg/m3],refractive index [3],SMILES
129.1 ± 0.2,940.5 ± 0.1,1.4985 ± 0.0007,Cc1ccccn1 [2-methylpyridine]
100.10 ± 0.2,–,1.3322 ± 0.0007,O [water]
